Blank lines part the entries; values can stand above or below the compound they belong to.
Assays:
[1] = Oral bioavailability in rat at 56 or 168 mg/kg/day administered through gavage for 14 consecutive days by HPLC analysis; format: ADME, organism-based; settings: in vivo
[2] = molecular target: T1, NAD-dependent protein deacetylase sirtuin-1 (Homo sapiens, UniProt Q96EB6); assay: Activation of recombinant human SIRT1 assessed as increase in deacetylation of Fluor de Lys-SIRT1-specific substrate after 2 hrs by HTS assay
T1 sequence (Q96EB6 whole entry): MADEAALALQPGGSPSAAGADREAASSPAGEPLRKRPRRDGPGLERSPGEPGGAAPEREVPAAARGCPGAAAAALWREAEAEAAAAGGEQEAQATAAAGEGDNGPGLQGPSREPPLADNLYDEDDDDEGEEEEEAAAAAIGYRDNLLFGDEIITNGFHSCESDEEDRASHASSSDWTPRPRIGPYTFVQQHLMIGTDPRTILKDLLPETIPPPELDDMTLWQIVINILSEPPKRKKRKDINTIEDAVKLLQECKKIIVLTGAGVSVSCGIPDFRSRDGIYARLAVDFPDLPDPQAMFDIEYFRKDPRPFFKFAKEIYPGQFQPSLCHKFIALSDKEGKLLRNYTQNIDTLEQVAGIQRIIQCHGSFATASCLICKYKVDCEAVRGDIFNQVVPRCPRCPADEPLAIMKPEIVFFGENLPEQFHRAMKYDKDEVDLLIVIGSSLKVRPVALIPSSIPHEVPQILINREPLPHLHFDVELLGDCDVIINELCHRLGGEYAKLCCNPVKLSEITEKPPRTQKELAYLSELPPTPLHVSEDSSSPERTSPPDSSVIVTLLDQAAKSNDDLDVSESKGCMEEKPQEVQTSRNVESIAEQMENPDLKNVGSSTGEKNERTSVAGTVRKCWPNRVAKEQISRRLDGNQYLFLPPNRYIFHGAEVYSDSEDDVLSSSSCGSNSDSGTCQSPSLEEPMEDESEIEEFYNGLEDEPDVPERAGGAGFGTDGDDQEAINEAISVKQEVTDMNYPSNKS

[3] = Cytotoxicity in HEK293 cells assessed as growth inhibition measured after 48 hrs by MTT assay; format: toxicity, cell-based; settings: human
[4] = Cytotoxicity in human Caco2 cells assessed as growth inhibition measured after 48 hrs by MTT assay; format: functional; settings: Caco-2, 48 h
[5] = Cytotoxicity in human LNCAP cells assessed as growth inhibition measured after 48 hrs by MTT assay; format: functional
[6] = Cytotoxicity in human MDA-MB-231 cells assessed as growth inhibition measured after 48 hrs by MTT assay; format: functional; settings: MDA-MB-231, 48 h
[7] = Cytotoxicity in human U937 cells assessed as growth inhibition measured after 48 hrs by MTT assay; format: functional; settings: U-937, 48 h
[8] = molecular target: T2, NAD-dependent protein deacetylase sirtuin-2 (Homo sapiens, UniProt Q8IXJ6); assay: Inhibition of human N-terminal 6His-tagged SIRT2 assessed as inhibition of deacetylase activity using ZMAL as substrate measured after 4 hrs by Fluor de Lys assay
T2 sequence (Q8IXJ6 whole entry): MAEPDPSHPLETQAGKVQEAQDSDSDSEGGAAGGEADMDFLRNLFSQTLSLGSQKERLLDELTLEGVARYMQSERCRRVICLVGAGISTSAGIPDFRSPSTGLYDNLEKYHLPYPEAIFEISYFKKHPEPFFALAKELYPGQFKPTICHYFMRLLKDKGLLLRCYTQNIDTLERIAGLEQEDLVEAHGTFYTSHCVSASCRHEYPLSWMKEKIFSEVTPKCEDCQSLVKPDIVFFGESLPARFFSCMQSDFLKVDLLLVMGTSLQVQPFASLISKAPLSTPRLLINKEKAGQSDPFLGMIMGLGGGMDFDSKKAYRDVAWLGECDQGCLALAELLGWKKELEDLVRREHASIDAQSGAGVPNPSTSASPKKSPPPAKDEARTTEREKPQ

[9] = molecular target: T1, NAD-dependent protein deacetylase sirtuin-1; assay: Inhibition of recombinant human SIRT1 assessed as inhibition of deacetylase activity using ZMAL as substrate measured after 4 hrs by Fluor de Lys assay
[10] = molecular target: T3, NAD-dependent protein deacetylase sirtuin-1 (Homo sapiens) (UniProt Q96EB6); assay: Activation of recombinant human SIRT1 using TPE-GK(Ac)YDD as substrate at 50 uM by fluorescence assay relative to control
T3 sequence (whole entry): T1 sequence (Q96EB6 whole entry)

[11] = molecular target: T1, NAD-dependent protein deacetylase sirtuin-1; assay: Inhibition of recombinant human SIRT1 (193 to 747 residues) expressed in Escherichia coli BL21 (DE3) using AMC-labeled p53-derived acetylated lysine as substrate in presence of NAD+ by HTS assay
[12] = molecular target: T1, NAD-dependent protein deacetylase sirtuin-1; assay: Inhibition of SIRT1 (unknown origin) using acetylated lysine as substrate by Fluor de Lys assay
[13] = molecular target: T2, NAD-dependent protein deacetylase sirtuin-2; assay: Inhibition of human SIRT2 using biotin labeled histone H4 peptide with an acetylated lysine 4 as substrate measured after 1 hr by luminescence analysis
[14] = molecular target: T1, NAD-dependent protein deacetylase sirtuin-1; assay: Inhibition of human SIRT1 using biotinylated peptide with an acetylated FLAG sequence as substrate measured after 3 hr in presence of NAD+ by TR-FRET assay
[15] = molecular target: T1, NAD-dependent protein deacetylase sirtuin-1; assay: Inhibition of recombinant SIRT1 (unknown origin) assessed as deacetylation activity using acetylated p53 as substrate measured after 2 hrs by Fluor de Lys assay
[16] = molecular target: NAD-dependent histone deacetylase SIR2 (Saccharomyces cerevisiae S288c, UniProt P06700); assay: Non-competitive inhibition of recombinant yeast glutathione-S-transferase-tagged SIRT2 using acetylated histone as substrate measured after 30 mins by fluorimetric analysis
Chain of NAD-dependent histone deacetylase SIR2 (P06700 whole entry): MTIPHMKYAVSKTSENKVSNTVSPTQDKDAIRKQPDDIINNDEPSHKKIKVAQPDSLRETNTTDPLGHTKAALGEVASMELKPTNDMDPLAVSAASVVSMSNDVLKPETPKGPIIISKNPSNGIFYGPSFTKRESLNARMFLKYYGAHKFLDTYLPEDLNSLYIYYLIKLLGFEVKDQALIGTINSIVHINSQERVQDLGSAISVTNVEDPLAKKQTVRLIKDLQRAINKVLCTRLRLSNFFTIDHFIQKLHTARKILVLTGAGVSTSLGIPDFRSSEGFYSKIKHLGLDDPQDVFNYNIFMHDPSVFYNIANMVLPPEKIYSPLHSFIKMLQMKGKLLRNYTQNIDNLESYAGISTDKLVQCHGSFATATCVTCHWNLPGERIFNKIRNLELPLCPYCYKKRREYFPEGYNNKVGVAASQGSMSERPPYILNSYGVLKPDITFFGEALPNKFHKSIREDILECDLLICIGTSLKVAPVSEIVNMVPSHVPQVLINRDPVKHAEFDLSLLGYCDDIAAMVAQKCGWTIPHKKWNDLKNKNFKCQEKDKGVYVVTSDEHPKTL

[17] = molecular target: T2, NAD-dependent protein deacetylase sirtuin-2; assay: Inhibition of recombinant human GST-tagged SIRT2 overexpressed in Escherichia coli DH5alpha assessed as deacetylation activity using [3H]-MPSDKTIGG as substrate measured after overnight incubation by liquid scintillation counting method
[18] = molecular target: T1, NAD-dependent protein deacetylase sirtuin-1; assay: Inhibition of recombinant human GST-tagged SIRT1 overexpressed in Escherichia coli DH5alpha assessed as deacetylation activity using [3H]-MPSDKTIGG as substrate measured after overnight incubation by liquid scintillation counting method

bioavailability [1]: 80%
Structure (SMILES): COc1cc(/C=C/c2ccc(O)cc2)cc(OC)c1 [PTEROSTILBENE]

Structure (SMILES): COCCCn1c(N)c(C(=O)NC2CCCC2)c2nc3ccccc3nc21
EC50 [2]: < 1000 nM

Structure (SMILES): O=C(O)c1cccc(NC(=O)c2ccc(N3C(=O)c4ccc(C(=O)Nc5cccc(C(=O)O)c5)cc4C3=O)cc2)c1
GI50 at 48 h [3]: < 1000 nM | GI50 [4]: < 1000 nM | GI50 [5]: < 1000 nM | GI50 [6]: < 1000 nM | GI50 [7]: < 1000 nM

IC50 [8]: < 20300 nM | IC50 [9]: 5900 nM
Structure (SMILES): O=C1CC(=S)NC(=O)/C1=C/c1cc2ccccc2[nH]1

Activity [10]: 28%
Structure (SMILES): COc1cc2c(c(OC)c1OC)-c1c(cc(OC)c(OC)c1OC)C[C@H](C)[C@H](C)C2

IC50 [11]: 1080 nM
Structure (SMILES): Fc1cccc(-n2cc(CSC(=S)N3CCN(C(=S)SCc4cn(-c5ccccc5F)nn4)CC3)nn2)c1

IC50 [12]: > 100000 nM
Structure (SMILES): NC(=O)c1cccc(Nc2ccccc2)c1

Structure (SMILES): Cc1ccc(-c2nc3c(=O)n(C)c(=O)nc-3n(C)n2)cc1
IC50 [13]: > 100000 nM | IC50 [14]: 110 nM

IC50 [12]: > 100000 nM
Structure (SMILES): NC(=O)c1ccccc1Oc1ccccc1

EC50 [2]: < 1000 nM
Structure (SMILES): CCc1ccccc1-n1c(N)c(C(=O)NCC2CCCO2)c2nc3ccccc3nc21 (stereo not drawn)

IC50 [15]: 2800 nM
Structure (SMILES): COc1ccc2[nH]c3c(c2c1)CCCC3C(=O)O (stereo not drawn)

IC50 [16]: < 50000 nM
Structure (SMILES): NC(=O)c1cccnc1 [NIACINAMIDE]

IC50 [15]: 3100 nM
Structure (SMILES): Cc1ccc2[nH]c3c(c2c1)CCCC3C(=O)O (stereo not drawn)

IC50 [17]: 22000 nM | IC50 [18]: 9000 nM
Structure (SMILES): CC(C)=CCC/C(C)=C/C[C@@H]1C[C@]2(CC=C(C)C)C(=O)[C@@](CC=C(C)C)(C(=O)C(Cc3ccc(O)c(O)c3)=C2O)[C@@]1(C)CCC=C(C)C

IC50 [13]: > 100000 nM | IC50 [14]: 110 nM
Structure (SMILES): CCCCc1nc2c(=O)n(C)c(=O)nc-2n(C)n1
